The structures appear in SMILES notation. Where two headings read alike, the source gives them in different places.

Assay [1] deals with T1, NhAAT.
T1 construct: gene AAT; E. coli BL21 pLysS; homodimer predicted; catalytic Lys267; primers imply N-terminus MTTTAMAP and C-terminus ETVVKQE
Nature of the assay: coupled malate dehydrogenase assay, NADH decrease at […] nm, double reciprocal plot. As to conditions: reverse reaction; co-substrate 20 mM α-ketoglutarate; 50 µM PLP; 0.1 M sodium phosphate; optimal conditions pH 7.5, 45 °C; L-aspartic acid 0-100 mM. It is filed as biochemical, Neoporphyra haitanensis.

Assay [2] has as its system T2, NhAAT.
T2 construct: gene AAT
To be noted: forward reaction; co-substrate 20 mM oxaloacetic acid; 50 µM PLP; 0.1 M sodium phosphate; optimal conditions pH 7.5, 45 °C; L-glutamic acid 0-100 mM.

`N[C@@H](CC(=O)O)C(=O)O` [L-aspartic acid]: the Km in the assay on NhAAT [1] came to 6.16 mM.

`N[C@@H](CCC(=O)O)C(=O)O` [L-glutamic acid]: in the assay on NhAAT [2], the Km turned out to be 5.67 mM.

As usually defined, the Km is the substrate concentration at which the rate is half of its maximum.

Source of the values: article PMC10029208, “Isolation and functional verification of an aspartate aminotransferase gene from Neoporphyra haitanensis” (BMC Plant Biology, 2023).
